How the values were obtained:
[1] = biological target: T1, NAD-dependent protein deacetylase sirtuin-3, mitochondrial (Homo sapiens, UniProt Q9NTG7); experiment: Inhibition of wild type C-terminal human SIRT3 (118 to […] residues) expressed in Escherichia coli strain BL21DE3 Rosetta2 using Fluor de lys as substrate incubated for 30 mins by fluorescence based analysis
T1 sequence (Q9NTG7 whole entry): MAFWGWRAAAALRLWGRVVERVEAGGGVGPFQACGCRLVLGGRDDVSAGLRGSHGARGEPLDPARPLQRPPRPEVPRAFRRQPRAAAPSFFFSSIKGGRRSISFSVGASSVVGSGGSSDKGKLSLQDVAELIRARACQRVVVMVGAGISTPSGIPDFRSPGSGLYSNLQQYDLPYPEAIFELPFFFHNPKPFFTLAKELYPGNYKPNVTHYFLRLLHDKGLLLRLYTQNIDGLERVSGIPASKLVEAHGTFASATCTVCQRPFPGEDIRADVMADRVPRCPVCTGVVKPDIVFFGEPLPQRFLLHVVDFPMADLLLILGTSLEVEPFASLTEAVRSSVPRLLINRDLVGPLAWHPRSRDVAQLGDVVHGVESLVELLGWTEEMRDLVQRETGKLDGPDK

HL-60 [2] = experiment: cells; conditions: Homo sapiens, HL-60, 24 h
MV4-11 [3] = experiment: cells; conditions: Homo sapiens, MV4-11, 24 h
MOLM-13 [4] = experiment: cells; conditions: Homo sapiens, MOLM-13, 24 h
HL-60 [5] = experiment: Induction of apoptosis in human HL-60 cells assessed as viable cells at 10 uM incubated for 24 hrs by annexin V/FITC and Propidium Iodide staining based flow cytometry analysis (reference value: 98.9%); assay type: functional; conditions: read-out: Activity
[6] = Toxicity in nude mouse assessed as effect on brain at 5 mg/kg, ip administered daily for upto 14 days; assay type: organism-based; conditions: in vivo, 336 h, time < 14 day
MOLM-13 [7] = experiment: Induction of apoptosis in human MOLM-13 cells assessed as viable cells at 10 uM incubated for 24 hrs by annexin V/FITC and Propidium Iodide staining based flow cytometry analysis (reference value: 98.1%); assay type: functional; conditions: read-out: Activity
[8] = biological target: T2, NAD-dependent protein deacetylase sirtuin-2 (Homo sapiens, UniProt Q8IXJ6); experiment: Inhibition of recombinant human SIRT2 using Fluor de lys as substrate incubated for 30 mins by fluorescence based analysis
T2 sequence (Q8IXJ6 whole entry): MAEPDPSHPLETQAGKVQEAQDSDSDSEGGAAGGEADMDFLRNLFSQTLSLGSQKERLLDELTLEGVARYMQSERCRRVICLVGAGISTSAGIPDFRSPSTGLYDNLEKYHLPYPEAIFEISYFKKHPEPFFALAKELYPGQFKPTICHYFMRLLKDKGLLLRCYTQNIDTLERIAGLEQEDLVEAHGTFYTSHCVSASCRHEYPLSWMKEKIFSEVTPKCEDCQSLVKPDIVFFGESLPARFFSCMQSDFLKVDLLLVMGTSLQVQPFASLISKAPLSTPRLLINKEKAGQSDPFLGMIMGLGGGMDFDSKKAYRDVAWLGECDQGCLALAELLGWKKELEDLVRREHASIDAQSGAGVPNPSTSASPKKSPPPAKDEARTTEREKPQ

MV4-11 [9] = experiment: Induction of apoptosis in human MV4-11 cells assessed as viable cells at 10 uM incubated for 24 hrs by annexin V/FITC and Propidium Iodide staining based flow cytometry analysis (reference value: 95.4%); assay type: functional; conditions: read-out: Activity
[10] = Toxicity in nude mouse assessed as effect on heart at 5 mg/kg, ip administered daily for upto 14 days; assay type: organism-based; conditions: in vivo, 336 h, time < 14 day
[11] = Toxicity in nude mouse assessed as effect on kidney at 5 mg/kg, ip administered daily for upto 14 days; assay type: organism-based; conditions: in vivo, 336 h, time < 14 day
MOLM-13 [12] = experiment: Induction of apoptosis in human MOLM-13 cells assessed as viable cells at 5 uM incubated for 24 hrs by annexin V/FITC and Propidium Iodide staining based flow cytometry analysis (reference value: 98.1%); assay type: functional; conditions: read-out: Activity
[13] = Toxicity in nude mouse assessed as effect on spleen at 5 mg/kg, ip administered daily for upto 14 days; assay type: organism-based; conditions: in vivo, 336 h, time < 14 day
MOLM-13 [14] = experiment: Induction of apoptosis in human MOLM-13 cells assessed as viable cells at […] incubated for 24 hrs by annexin V/FITC and Propidium Iodide staining based flow cytometry analysis (reference value: 98.1%); assay type: functional; conditions: dose 2.5 µM, read-out: Activity
MV4-11 [15] = experiment: Induction of apoptosis in human MV4-11 cells assessed as viable cells at 5 uM incubated for 24 hrs by annexin V/FITC and Propidium Iodide staining based flow cytometry analysis (reference value: 95.4%); assay type: functional; conditions: read-out: Activity
[16] = Toxicity in nude mouse assessed as effect on body weight at 5 mg/kg, ip administered daily for upto 14 days; assay type: organism-based; conditions: in vivo, 336 h, time < 14 day
MV4-11 [17] = experiment: Induction of apoptosis in human MV4-11 cells assessed as viable cells at […] incubated for 24 hrs by annexin V/FITC and Propidium Iodide staining based flow cytometry analysis (reference value: 95.4%); assay type: functional; conditions: dose 2.5 µM, read-out: Activity
[18] = Toxicity in nude mouse assessed as effect on liver at 5 mg/kg, ip administered daily for upto 14 days; assay type: organism-based; conditions: in vivo, 336 h, time < 14 day
[19] = Toxicity in nude mouse assessed as effect on lung at 5 mg/kg, ip administered daily for upto 14 days; assay type: organism-based; conditions: in vivo, 336 h, time < 14 day
HL-60 [20] = experiment: Induction of apoptosis in human HL-60 cells assessed as viable cells at […] incubated for 24 hrs by annexin V/FITC and Propidium Iodide staining based flow cytometry analysis (reference value: 98.9%); assay type: functional; conditions: dose 2.5 µM, read-out: Activity
HL-60 [21] = experiment: Induction of apoptosis in human HL-60 cells assessed as viable cells at 5 uM incubated for 24 hrs by annexin V/FITC and Propidium Iodide staining based flow cytometry analysis (reference value: 98.9%); assay type: functional; conditions: read-out: Activity
[22] = biological target: T2, NAD-dependent protein deacetylase sirtuin-2; experiment: Inhibition of SIRT2 (unknown origin)
[23] = biological target: T1, NAD-dependent protein deacetylase sirtuin-3, mitochondrial; experiment: Inhibition of recombinant human SIRT3 using Fluor de lys as substrate incubated for 30 mins by fluorescence based analysis

SMILES	IC50 (HL-60 [2])	IC50 (MV4-11 [3])	IC50 (MOLM-13 [4])	also measured
Oc1cc(O)cc(/C=C/c2ccc(Br)cc2)c1	–	–	–	IC50 [1]: 143 µM
c1cncc(-c2cnn[nH]2)c1	> 50 µM	27.8 µM	12.6 µM	–
NC(=O)c1cc2ncnc(N3[C@@H]4CC[C@H]3CN(C(=O)Nc3ccc(C(F)(F)F)cc3)C4)c2s1	–	–	–	viability at 10 µM (HL-60 [5]): 73%; Activity [6]: Non-Toxic; viability at 10 µM (MOLM-13 [7]): 62.5%; IC50 [8]: 0.474 µM; viability at 10 µM (MV4-11 [9]): 65%; Activity [10]: Non-Toxic; Activity [11]: Non-Toxic; viability at 5 µM (MOLM-13 [12]): 67.5%; Activity [13]: Non-Toxic; viability at […] (MOLM-13 [14]): 90.4%; viability at 5 µM (MV4-11 [15]): 78.2%; Activity [16]: Non-Toxic; viability at […] (MV4-11 [17]): 85.7%; Activity [18]: Non-Toxic; Activity [19]: Non-Toxic; viability at […] (HL-60 [20]): 84.5%; viability at 5 µM (HL-60 [21]): 78.2%
Cc1ccc(NC(=O)N2C[C@H]3C[C@@H](C2)N3c2ncnc3cc(C(N)=O)sc23)cc1	> 50 µM	> 50 µM	> 50 µM	–
NC(=O)c1cc2ncnc(N3CCN(C(=O)Nc4ccc(Cl)cc4)CC3)c2s1	36.3 µM	12.3 µM	4.26 µM	–
Cc1ccc(NC(=O)N2C[C@H]3CC[C@@H](C2)N3c2ncnc3cc(C(N)=O)sc23)cc1	36.9 µM	18.1 µM	4.73 µM	–
NC(=O)c1cc2ncnc(N3[C@@H]4C[C@H]3CN(C(=O)Nc3ccccc3Cl)C4)c2s1	> 50 µM	> 50 µM	> 50 µM	–
NC(=O)c1cc2ncnc(N3[C@@H]4C[C@H]3CN(C(=O)Nc3cc(C(F)(F)F)cc(C(F)(F)F)c3)C4)c2s1	31.5 µM	26.3 µM	41.5 µM	–
NC(=O)c1cc2ncnc(N3[C@@H]4C[C@H]3CN(C(=O)Nc3ccc(C(F)(F)F)cc3)C4)c2s1	36.6 µM	26.3 µM	38.3 µM	–
NC(=O)c1cc2ncnc(N3[C@@H]4C[C@H]3CN(C(=O)Nc3ccc(F)cc3F)C4)c2s1	> 50 µM	> 50 µM	> 50 µM	–
CCNC(=S)c1ccc(C(=O)NCCC2CCN(c3ncnc4cc(C(N)=O)sc34)CC2)s1	–	–	–	IC50 [22]: 0.0027 µM

Continued, in another order:

IC50 (HL-60 [2])	IC50 (MV4-11 [3])	IC50 (MOLM-13 [4])	SMILES	also measured
38.2 µM	28.7 µM	33.2 µM	C#Cc1cccc(NC(=O)N2C[C@H]3C[C@@H](C2)N3c2ncnc3cc(C(N)=O)sc23)c1	–
> 50 µM	> 50 µM	39.8 µM	NC(=O)c1cc2ncnc(N3CCN(C(=O)Nc4ccccc4F)CC3)c2s1	–
17.4 µM	14.7 µM	10.6 µM	NC(=O)c1cc2ncnc(N3[C@@H]4CC[C@H]3CN(C(=O)Nc3ccc5ccccc5c3)C4)c2s1	–
5.45 µM	7.28 µM	3.47 µM	NC(=O)c1cc2ncnc(N3CCN(C(=O)Nc4cc(Cl)cc(Cl)c4)CC3)c2s1	–
27.1 µM	19.9 µM	25 µM	NC(=O)c1cc2ncnc(N3[C@@H]4C[C@H]3CN(C(=O)Nc3ccc(Cl)c(Cl)c3)C4)c2s1	–
> 50 µM	> 50 µM	33.1 µM	NC(=O)c1cc2ncnc(N3CCN(C(=O)Nc4ccc(F)cc4F)CC3)c2s1	–
36.3 µM	25.7 µM	6.27 µM	Cc1ccc(NC(=O)N2CCN(c3ncnc4cc(C(N)=O)sc34)CC2)cc1	–
37.1 µM	33.3 µM	17.7 µM	NC(=O)c1cc2ncnc(N3CCN(C(=O)NC4CCCCC4)CC3)c2s1	–
> 50 µM	34.1 µM	36.1 µM	NC(=O)c1cc2ncnc(N3[C@@H]4C[C@H]3CN(C(=O)Nc3cccc(Cl)c3)C4)c2s1	–
1.15 µM	5.09 µM	2.35 µM	NC(=O)c1cc2ncnc(N3[C@@H]4CC[C@H]3CN(C(=O)Nc3ccc(Cl)c(Cl)c3)C4)c2s1	IC50 [23]: 0.125 µM

— ChEMBL document CHEMBL5608205, “Design, synthesis and biological evaluation of novel SIRT3 inhibitors targeting both NAD+ and substrate binding sites for the treatment of acute myeloid leukemia” (Eur J Med Chem, 2024)
